Source: ChEMBL document CHEMBL1133283, “Arylsulfonyl-N,N-diethyl-dithiocarbamates: a novel class of antitumor agents” (Bioorg Med Chem Lett, 2000)
Blank lines part the entries; values can stand above or below the compound they belong to.

What was measured:
Carbonic anhydrase 2 = Carbonic anhydrase 2 (Homo sapiens, UniProt P00918); assay: Binding affinity of compound against human Carbonic anhydrase II
HOP-62 = assay: In vitro growth inhibition of compound was determined against HOP-62 cell lines of non-small cell lung cancer; type: functional; details: Homo sapiens
786-0 = assay: In vitro growth inhibition of compound was determined against […] cell lines of Renal cancer; type: functional; details: Homo sapiens
OVCAR-3 = assay: In vitro growth inhibition of compound was determined against OVCAR-3 cell lines of Ovarian cancer; type: functional; details: Homo sapiens
UACC-257 = assay: In vitro growth inhibition of compound was determined against UACC-257 cell lines of Melanoma; type: functional; details: Homo sapiens
SK-MEL-5 = assay: In vitro growth inhibition of compound was determined against SK-MEL-5 cell lines of Melanoma; type: functional; details: Homo sapiens
KM12 = assay: In vitro growth inhibition of compound was determined against KM12 cell lines of colon cancer; type: functional; details: Homo sapiens
OVCAR-4 = assay: In vitro growth inhibition of compound was determined against OVCAR-4 cell lines of Ovarian cancer; type: functional; details: Homo sapiens
TK-10 = assay: In vitro growth inhibition of compound was determined against TK-10 cell lines of Renal cancer; type: functional; details: Homo sapiens
LOX IMVI = assay: In vitro growth inhibition of compound was determined against LOX IMVI cell lines of Melanoma; type: functional; details: Homo sapiens
CAKI-1 = assay: In vitro growth inhibition of compound was determined against CAKI-1 cell lines of Renal cancer; type: functional; details: Homo sapiens
MDA-N = assay: In vitro growth inhibition of compound was determined against MDA-Ncell lines of Breast cancer; type: functional; details: Homo sapiens
SF-295 = assay: In vitro growth inhibition of compound was determined against SF-295 cell lines of CNS cancer; type: functional; details: Homo sapiens
NCI-H226 = assay: In vitro growth inhibition of compound was determined against NCI-H226 cell lines of non-small cell lung cancer; type: functional; details: Homo sapiens
NCI-H522 = assay: In vitro growth inhibition of compound was determined against NCI-H522 cell lines of non-small cell lung cancer; type: functional; details: Homo sapiens
RPMI-8226 = assay: In vitro growth inhibition of compound was determined against RPMI-8226 cell lines of Leukemia; type: functional; details: Homo sapiens
SNB-75 = assay: In vitro growth inhibition of compound was determined against SNB-75 cell lines of CNS cancer; type: functional; details: Homo sapiens
ACHN = assay: In vitro growth inhibition of compound was determined against ACHN cell lines of Renal cancer; type: functional; details: Homo sapiens
OVCAR-8 = assay: In vitro growth inhibition of compound was determined against OVCAR-8 cell lines of Ovarian cancer; type: functional; details: Homo sapiens
HCC 2998 = assay: In vitro growth inhibition of compound was determined against HCC2998 cell lines of colon cancer; type: functional; details: Homo sapiens
MDA-MB-435 = assay: In vitro growth inhibition of compound was determined against MDA-MB-435 cell lines of Breast cancer; type: functional; details: Homo sapiens
K562 = assay: In vitro growth inhibition of compound was determined against K-562 cell lines of Leukemia; type: functional; details: Homo sapiens
BT-549 = assay: In vitro growth inhibition of compound was determined against BT-549 cell lines of Breast cancer; type: functional; details: Homo sapiens
COLO 205 = assay: In vitro growth inhibition of compound was determined against COLO-205 cell lines of colon cancer; type: functional; details: Homo sapiens
NCI/ADR-RES = assay: In vitro growth inhibition of compound was determined against NCI/ADR-RES cell lines of Breast cancer; type: functional; details: Homo sapiens
Malme-3M = assay: In vitro growth inhibition of compound was determined against MALME-3M cell lines of Melanoma; type: functional; details: Homo sapiens
Hs-578T = assay: In vitro growth inhibition of compound was determined against Hs 578.T cell lines of Breast cancer; type: functional; details: Homo sapiens
RXF 393 = assay: In vitro growth inhibition of compound was determined against RXF393 cell lines of Renal cancer; type: functional; details: Homo sapiens
SR = assay: In vitro growth inhibition of compound was determined against SR cell lines of Leukemia; type: functional; details: Homo sapiens
HOP-92 = assay: In vitro growth inhibition of compound was determined against HOP-92 cell lines of non-small cell lung cancer; type: functional; details: Homo sapiens
HT-29 = assay: In vitro growth inhibition of compound was determined against HT-29 cell lines of colon cancer; type: functional; details: Homo sapiens
MCF7 = assay: In vitro growth inhibition of compound was determined against MCF-7 cell lines of Breast cancer; type: functional; details: Homo sapiens
M14 = assay: In vitro growth inhibition of compound was determined against M14 cell lines of Melanoma; type: functional; details: Homo sapiens
DU-145 = assay: In vitro growth inhibition of compound was determined against DU-145 cell lines of Prostate cancer; type: functional; details: Homo sapiens
U-251 = assay: In vitro growth inhibition of compound was determined against U251 cell lines of CNS cancer; type: functional; details: Homo sapiens
UO-31 = assay: In vitro growth inhibition of compound was determined against UO-31 cell lines of Renal cancer; type: functional; details: Homo sapiens
HCT-116 = assay: In vitro growth inhibition of compound was determined against HCT116 cell lines of colon cancer; type: functional; details: Homo sapiens
SF-539 = assay: In vitro growth inhibition of compound was determined against SF-539 cell lines of CNS cancer; type: functional; details: Homo sapiens
SF-268 = assay: In vitro growth inhibition of compound was determined against SF-268 cell lines of CNS cancer; type: functional; details: Homo sapiens
A549 = assay: In vitro growth inhibition of compound was determined against A549/ATCC cell lines of non-small cell lung cancer; type: functional; details: Homo sapiens
SN12C = assay: In vitro growth inhibition of compound was determined against SN12C cell lines of Renal cancer; type: functional; details: Homo sapiens
MDA-MB-231 = assay: In vitro growth inhibition of compound was determined against MDA-MB-231/ATCC cell lines of Breast cancer; type: functional; details: Homo sapiens
SW-620 = assay: In vitro growth inhibition of compound was determined against SW-620 cell lines of colon cancer; type: functional; details: Homo sapiens
SK-MEL-28 = assay: In vitro growth inhibition of compound was determined against SK-MEL-28 cell lines of Melanoma; type: functional; details: Homo sapiens
HCT-15 = assay: In vitro growth inhibition of compound was determined against HCT-15 cell lines of colon cancer; type: functional; details: Homo sapiens

Compound: NS(=O)(=O)c1ccc(NSC(=S)N2CCOCC2)cc1
Ki (Carbonic anhydrase 2): 0.035 µM

Compound: NS(=O)(=O)c1ccc(CCNSC(=S)N2CCOCC2)cc1
Ki (Carbonic anhydrase 2): 0.035 µM

Compound: NS(=O)(=O)c1ccc(CNSC(=S)N2CCOCC2)cc1
Ki (Carbonic anhydrase 2): 0.035 µM

GI50 (786-0): 16 µM
GI50 (OVCAR-3): 35 µM
GI50 (SK-MEL-5): 2 µM
GI50 (OVCAR-4): 45 µM
GI50 (NCI-H226): 83 µM
GI50 (NCI-H522): 0.02 µM
GI50 (RPMI-8226): 12 µM
GI50 (ACHN): 36 µM
GI50 (OVCAR-8): 20 µM
GI50 (HCC 2998): 94 µM
GI50 (MDA-MB-435): 23 µM
GI50 (K562): 19 µM
GI50 (BT-549): 36 µM
GI50 (COLO 205): 19 µM
GI50 (HT-29): 22 µM
GI50 (MCF7): 6 µM
GI50 (DU-145): 27 µM
GI50 (U-251): 14 µM
GI50 (HCT-116): 5 µM
GI50 (A549): 1 µM
GI50 (MDA-MB-231): 26 µM
GI50 (SW-620): 18 µM
GI50 (SK-MEL-28): 19 µM
GI50 (HCT-15): 52 µM
Compound: CCN(CC)C(=S)SS(=O)(=O)c1ccc([N+](=O)[O-])cc1
GI50 (HOP-62): 32 µM
GI50 (UACC-257): 24 µM
GI50 (KM12): 11 µM
GI50 (TK-10): 43 µM
GI50 (LOX IMVI): 17 µM
GI50 (CAKI-1): 18 µM
GI50 (MDA-N): 30 µM
GI50 (SF-295): 59 µM
GI50 (SNB-75): 77 µM
GI50 (NCI/ADR-RES): 48 µM
GI50 (Malme-3M): 14 µM
GI50 (Hs-578T): > 100 µM
GI50 (RXF 393): 16 µM
GI50 (SR): 0.1 µM
GI50 (HOP-92): 4 µM
GI50 (M14): 15 µM
GI50 (UO-31): 21 µM
GI50 (SF-539): 20 µM
GI50 (SF-268): > 100 µM
GI50 (SN12C): 27 µM
